Test results taken from patent US5834012A, “Lipid complexed topoisomerase I inhibitors” (Perez-Soler; Roman, priority 1995, dated 1998).
Where “and” joins values, the source holds several entries; their conditions need not be identical. Equal values may be shown once. Entries after “also recorded” stand apart in the source; their conditions may differ.

Assays:
DIFI cells = assay: MTT cytotoxicity, DIFI cells; format: cell-based, human
Procedure: (§1) Cell Lines. MDA-Panc3 cells(pancreas carcinoma), DiFi cells (colon carcinoma), and KB cells (squamous carcinoma) were used for in vitro data.
(§2) Cytotoxicity Assay. 8,000 cells/well in 135 ul of Dubelco's MEM with 10% fetal bovine serum (FBS) was added to 96-well culture plates. The plates were incubated for 14 h at 37° in the presence of 5% CO2. 15 µL of CPT, liposomal CPT (L-CPT), and empty liposomes (ELs) with CPT were added in concentrations of […] CPT. Lipids were added to each sample (5-25:1 lipid:drug weight ratio). The cells were incubated in the presence of drug for 24 to 120 h. After […] of 5 mg/ml MTT in PBS was added to the samples, the cells were incubated at 37° for 2 h. 100 µL of lysis buffer (50 ml DMF, 20 gm SDS, to total volume 100 ml with water, adjusted to pH 4.7 with NaOH) was added to each well. Plates were incubated for 14h at 37°, then read at 570 nm in a kinetic microplate reader. A dose of 0.1 M blank lipid was used as a control for 100% survival.
(§3) LC-CPT consisting of 12.5:1 DO-NGPE:CPT was used for in vitro assays of cytotoxicity. Lethal cellular injury induced by CPT requires prolonged exposure, cytotoxicity of L-CPT and controls were determined at 24, 72, and 120 hr intervals of continuous drug exposure.

KB cells = assay: MTT cytotoxicity, KB cells; format: cell-based, human
Procedure: as §1, §2, §3

MDA-Panc3 cells = assay: MTT cytotoxicity, MDA-Panc3 cells; format: cell-based, human; conditions: 24-120 h
Procedure: as §1, §2, §3

P388 leukemia = assay: Survival of mice inoculated IP with P388 leukemia; format: in vivo, mouse (B6D2Fl); conditions: for long-term survivors, percent: FIG. 5b; for % T/C: 24 h after inoculation
L1210 leukemia = assay: Survival of mice inoculated IP with L1210 leukemia; format: in vivo, mouse (B6D2Fl); conditions: for % T/C: 24 h after inoculation
Procedure: In Vivo Protocol. B6D2Fl mice (Charles River Laboratories, Wilmington, Mass., U.S.A.) were injected with […] L1210 leukemia cells via the intraperitoneal route. A single intraperitoneal treatment with ELs, CPT, L-CPT, ELs +CPT was administered 24 hours after tumor inoculation. Five animals were used in each group except for the control group which consisted of 7 untreated mice.
Statistical Considerations. Animal survival data was plotted using the method described by Kaplan and Meier (Kaplan and Meier, 1958):
Because LC-CPT appeared to have improved potency compared to free CPT and LC-CPT caused early death at the highest doses, mice inoculated with L1210 leukemia were treated with doses of 30 to 60 mg/kg free CPT or 10 to 20 mg/kg of LC-CPT (Table 6). […] One animal treated with 15 mg/kg free CPT plus lipid survived 50 days.

[1] = Organ distribution after i.v. administration; format: in vivo, mice
Solubility of CPT = format: physicochemical
From the text: Some lipophilic drugs such as taxol and taxotere can be solubilized by mild detergents, surfactants and alcohol- containing solutions; however, no similar vehicle has been identified for CPT lactone. […] Solutions containing chloroform and methanol can solubilize CPT, but are too toxic for clinically relevant studies.

[2] = it has been shown; cited from earlier work
[3] = Lipids screened for complexation with CPT (fluorescent microscopy; % bound); format: physicochemical
From the text: In order to prepare LC-CPT (a liposomal preparation containing CPT within spherical lipid vesicles) various individual lipids were screened for complexation with CPT. […] CPT crystals and lipid/CPT complexes of >0.4 microns can be visualized under a fluorescent microscope (since CPT fluoresces due to its rigid ring structure). […] Therefore, the better a lipid complexes with CPT the less CPT crystals are formed, and the more lipid/CPT complexes are formed.
Drug/lipid Complex Preparation. CPT was mixed in ratios of from 2:1 to 25:1 w/w lipid:drug in chloroform-methanol (8:1). For studies where CPT was radiolabeled, approximately 0.02 uCi/ml [^3 H] CPT was added to the preparation. Trace quantities of ^14 C labeled cholesterol was added to samples requiring lipid labeling. For small samples, the lipids were dried in 12×75 mm culture tubes under a stream of nitrogen gas. For large samples, a rotavapor (Buchi RE140, Switzerland) was used to dry lipids in a 100 to 1000 ml round bottom flasks. […] For liposomal CPT 0.9% Nace was used. Preparations were screened for lipid entrapment by light and fluorescent microscopy (Nikon Labophot-2, Japan). […]
Lipids of varying carbon chain length, charge, and saturation, alone or in different combinations, were empirically screened for their ability to form liposomes incorporating CPT by fluorescent microscopy.

[4] = Chromatographic evaluation of CPT in the liposome fraction; format: physicochemical; conditions: lipid used alone
Procedure: Chromatography. A 30 cm agarose 0.5M column is used to separate liposome-bound drug from free CPT. PBS is used as the mobile phase for all preparations. Twenty samples were collected in 3 mL aliquots for a total of 60 mLs. Fluorescence and scintigraphy were used to detect encapsulated and free drug. Fluorimetry. Aliquots of 20 μl from each collection tube were transferred to cuvets containing 2 ml methanol. Fluorimetry was performed as described by Hart et al. (Hart et al., 1969). Fluorescence was measured at an excitation wavelength of 370 nm and emission wavelength of 434 nm (Perkin-Elmer MPF44A, Norwalk, Conn., U.S.A.). Two ml of ethanol was used as a control for machine calibration.
Chromatographic evaluation confirmed that <5% of CPT was incorporated in the liposome fraction of the preparation, the rest presumably being solubilized or in small particles not detectable by fluorescence microscopy.
(§4) These observation led the present inventors to other negatively charged lipids. […] Chromatographic evaluation of these preparations confirmed again that <5% of CPT eluted with the liposome fraction, the rest of the drug eluting later in a large number of consecutive fractions. By differential centrifugation, the lipid-binding efficiency of cardiolipin was about 67% and that of DO-NGPE 97%. DO-NGPE-CPT was, therefore, selected for further biological and pharmacological studies.

[5] = Lipid-binding efficiency by differential centrifugation; format: physicochemical
Procedure: Determination of Entrapment Efficiency.
A modification of the Ficoll flotation method for separating entrapped from free drug was used (Fraley et al.). […] samples were added to 12×75 mm culture tubes. One ml of 30% Ficoll was layered on the liposome preparation, then one ml of PBS was layered on top of the Ficoll. The tube was spun for 30 min at 3400 rpm in Sorvall GS2-B swing rotor. The percent entrapment was calculated with the formula: [formula]
as §4

[6] = system: KB, MDA-Panc3, and DIFI cell lines; assay: MTT cytotoxicity, KB, MDA-Panc3 and DIFI cell lines taken together; format: cell-based, human
Procedure: as §1, §2, §3

Q: With `CC[C@@]1(O)C(=O)OCc2c1cc1n(c2=O)Cc2cc3ccccc3nc2-1` [CPT, Camptothecin] as the compound, how does the “cytotoxicity (in words)” value (DIFI cells; 24-120 h) read?
A: Its value is “significantly more toxic to cells at a concentration of 1M compared to 0.1M”.

Q: And the cellular viability (DIFI cells; 120 h)?
A: The cellular viability was “approximately 40%”.

Q: And the “cytotoxicity (in words)” value (KB cells; 24 h)?
A: Its value is “somewhat more sensitive to CPT at 24 h than DIFI cells”.

Q: What about the cellular viability (KB cells; 120 h) of the same compound?
A: The cellular viability was “approximately 40%”.

Q: And the “cytotoxicity (in words)” value (MDA-Panc3 cells)?
A: The value was “modestly sensitive; also recorded: significantly more toxic to cells at a concentration of 1 μmol compared to 0.1 μmol; also recorded: somewhat more sensitive to CPT at 24 h than DIFI cells”.

Q: What about the “long-term survivors, percent” value (P388 leukemia; IP, 20 mg/Kg) of the same compound?
A: Its value is 20%.

Q: What about the “long-term survivors, percent” value (P388 leukemia; IP, 40 mg/Kg) of the same compound?
A: The value was 60%.

Q: And the “treatment-related deaths / toxicity at 40 mg/kg” value (P388 leukemia; IP, 40 mg/kg CPT)?
A: The value was “one treatment related death (day 8)”.

Q: What about the “antitumor activity, P388 (in words)” value (P388 leukemia; P388, IP) of the same compound?
A: The value was “No activity”.

Q: And the 50-day survivors (P388 leukemia; P388, IP, 10 mg/kg CPT)?
A: The 50-day survivors was “none”.

Q: What about the “% T/C” value (P388 leukemia; P388, IP, 10 mg/kg CPT) of the same compound?
A: The value was 121%.

Q: And the 50-day survivors (P388 leukemia; P388, IP, 20 mg/kg CPT)?
A: The 50-day survivors was “none”.

Q: What about the “% T/C” value (P388 leukemia; P388, IP, 20 mg/kg CPT) of the same compound?
A: Its value is 100%.

Q: And the “50-day survivors / long-term survivors” value (P388 leukemia; P388, IP, 40 mg/kg CPT, 40 mg/kg)?
A: Its value is 3 and 3/5.

Q: And the “%T/C, similar antitumor activity compared” value (P388 leukemia; P388, IP, dose not given)?
A: Its value is 207%.

Q: What about the “antitumor activity / survival, L1210 (in words)” value (L1210 leukemia) of the same compound?
A: Its value is “inactive”.

Q: And the 50-day survivors (L1210 leukemia; 30 mg/kg CPT)?
A: The 50-day survivors was 0.

Q: And the “% T/C” value (L1210 leukemia; 30 mg/kg CPT)?
A: Its value is 85%.

Q: What about the 50-day survivors (L1210 leukemia; 45 mg/kg CPT) of the same compound?
A: Its 50-day survivors is 0.

Q: What about the “% T/C” value (L1210 leukemia; 45 mg/kg CPT) of the same compound?
A: The value was 85%.

Q: And the 50-day survivors (L1210 leukemia; 60 mg/kg CPT)?
A: Its 50-day survivors is 0.

Q: What about the “% T/C” value (L1210 leukemia; 60 mg/kg CPT) of the same compound?
A: The value was 92%.

Q: And the “GI Tract level” value ([1]; 6 hrs, i.v. 10 mg/kg CPT)?
A: Its value is 2.562 ± 0.515 μg/ml or μg/mg dry tissue.

Q: And the Heart level ([1]; 6 hrs, i.v. 10 mg/kg CPT)?
A: The Heart level was 1.458 ± 0.555 μg/ml or μg/mg dry tissue.

Q: What about the Kidney level ([1]; 6 hrs, i.v. 10 mg/kg CPT) of the same compound?
A: Its Kidney level is 0.443 ± 0.164 μg/ml or μg/mg dry tissue.

Q: What about the Liver level ([1]; 6 hrs, i.v. 10 mg/kg CPT) of the same compound?
A: The Liver level was 2.077 ± 0.402 μg/ml or μg/mg dry tissue.

Q: What about the Lung level ([1]; 6 hrs, i.v. 10 mg/kg CPT) of the same compound?
A: Its Lung level is 38.217 ± 3.061 μg/ml or μg/mg dry tissue.

Q: And the “GI Tract level” value ([1]; 24 hrs, i.v. 10 mg/kg CPT)?
A: Its value is 0.492 ± 0.148 μg/ml or μg/mg dry tissue.

Q: And the Heart level ([1]; 24 hrs, i.v. 10 mg/kg CPT)?
A: Its Heart level is 0.228 ± 0.092 μg/ml or μg/mg dry tissue.

Q: What about the Kidney level ([1]; 24 hrs, i.v. 10 mg/kg CPT) of the same compound?
A: Its Kidney level is 0.539 ± 0.428 μg/ml or μg/mg dry tissue.

Q: What about the Liver level ([1]; 24 hrs, i.v. 10 mg/kg CPT) of the same compound?
A: The Liver level was 0.429 ± 0.124 μg/ml or μg/mg dry tissue.

Q: What about the Lung level ([1]; 24 hrs, i.v. 10 mg/kg CPT) of the same compound?
A: Its Lung level is 12.276 ± 5.363 μg/ml or μg/mg dry tissue.

Q: What about the “drug level in the lungs, free CPT relative to LC-CPT” value ([1]; i.v.) of the same compound?
A: The value was “about 180 -fold”.

Q: What about the “biodistribution / clearance (in words)” value ([1]; i.v., mice, listed as free CPT) of the same compound?
A: Its value is “rapidly cleared from the blood; also recorded: Heart and kidney levels of free CPT were higher than those of LC-CPT”.

Q: What about the concentration at 6 h ([1]; mouse, in vivo, iv, 6 hrs, i.v. 10 mg/kg CPT, read-out: Blood level) of the same compound?
A: The concentration at 6 h was 69 ± 39 ng/mL.

Q: And the concentration at 24 h ([1]; mouse, in vivo, iv, 24 hrs, i.v. 10 mg/kg CPT, read-out: Blood level)?
A: Its concentration at 24 h is 8 ± 12 ng/mL.

Q: What about the “aqueous solubility (in words)” value (Solubility of CPT) of the same compound?
A: The value was “poor aqueous solubility”.

Q: What about the “solubility in DMSO, Tween-20, cremophor, and methanol (in words)” value (Solubility of CPT; CPT lactone) of the same compound?
A: Its value is “crystallization and precipitation of drug occurs”.

Q: And the “activity of closed-lactone form relative to sodium salt” value [2]?
A: Its value is 10 fold.

Q: Which results are given for `CCCCCCCC/C=C\CCCCCCCC(=O)OCC(COP(=O)(O)OCCNC(=O)CCCC(=O)O)OC(=O)CCCCCCC/C=C\CCCCCCCC` (centres unmarked) [Dioleoyl-NGPE, dioleoyl-N-glutaryl-phosphatidyl ethanolamine]?
A: Crystals ([3]; Table 1, lipid alone with CPT, fluorescent microscopy): no; interaction with CPT (in words) ([3]; listed as DO-NGPE): homogeneous and milky preparations devoid of drug crystals; also recorded: most favorable interaction; CPT incorporated in / eluted with the liposome fraction [4]: < 5%; lipid-binding efficiency [5]: 97%; antitumor activity in vitro (in words) [6]: does not appear to have any intrinsic antitumor activity and does not inhibit the effects of CPT
